Converted amounts (≈) assume the structure as drawn. “Also recorded” adds a separate entry of the source.
How the values were obtained:
human 12/15-LOX = conditions: read-out: 12/15-LOX IC50; cited from earlier work
HT22 cells = assay: HT22 cell culture assay, glutamate-induced cell death; format: cell-based, mouse
[1] = Stability in aqueous solutions; format: physicochemical; conditions: pH 2, pH 7.4, pH 9
[2] = Aqueous kinetic solubility in PBS buffer; format: physicochemical; conditions: pH 7.4
[3] = Microsomal stability, mouse; format: in vitro ADME; conditions: mouse liver microsomes, in the presence of NADPH
[4] = Microsomal stability, rat; format: in vitro ADME; conditions: rat liver microsomes, in the presence of NADPH
[5] = biological target: T1, human platelet 12-lipoxygenase (12-LOX) (Homo sapiens, UniProt P18054); assay: Lipoxygenase UV-Vis assay, 12-LOX selectivity
T1 sequence (P18054 1-663): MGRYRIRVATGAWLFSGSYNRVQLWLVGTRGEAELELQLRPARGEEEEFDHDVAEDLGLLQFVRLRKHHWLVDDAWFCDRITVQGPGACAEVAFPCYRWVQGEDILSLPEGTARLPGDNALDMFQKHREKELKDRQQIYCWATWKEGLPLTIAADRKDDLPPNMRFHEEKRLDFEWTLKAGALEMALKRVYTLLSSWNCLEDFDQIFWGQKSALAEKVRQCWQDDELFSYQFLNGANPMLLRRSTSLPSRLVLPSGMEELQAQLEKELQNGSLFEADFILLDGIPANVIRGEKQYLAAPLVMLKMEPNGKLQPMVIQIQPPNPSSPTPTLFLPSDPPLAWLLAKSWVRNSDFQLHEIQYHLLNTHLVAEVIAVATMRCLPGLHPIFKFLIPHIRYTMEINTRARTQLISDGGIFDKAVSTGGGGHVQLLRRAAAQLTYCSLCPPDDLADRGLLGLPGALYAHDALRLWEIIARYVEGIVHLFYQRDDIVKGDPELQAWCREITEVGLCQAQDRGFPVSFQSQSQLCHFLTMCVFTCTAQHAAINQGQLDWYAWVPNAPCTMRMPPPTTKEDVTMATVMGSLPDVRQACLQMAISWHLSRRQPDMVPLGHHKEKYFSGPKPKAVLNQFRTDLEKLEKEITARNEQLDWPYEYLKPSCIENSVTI

C[C@H]1[C@H](C)CC[C@]2(C)CC[C@]3(C)C(=CC[C@@H]4[C@@]5(C)CC[C@@H](O)[C@](C)(C(=O)O)[C@@H]5CC[C@]43C)[C@H]12 [boswellic acid]
IC50 (human 12/15-LOX): 1 µM

CNc1nc(C#N)c(-c2cccc3ccccc23)o1 [Compound 34]
cellular protection in HT22 cells (HT22 cells; 5 μM concentration, glutamate-treated): did not protect; also recorded: does not protect

O=c1cc(-c2ccccc2)oc2cc(O)c(O)c(O)c12 [baicalein]
IC50 (human 12/15-LOX): 1.6 µM

CNc1oc(-c2cccc3ccccc23)nc1C#N [Compound 1, 5-(Methylamino)-2-(naphthalen-1-yl)oxazole-4-carbonitrile]
stability in aqueous solutions [1]: stable | solubility kinetic [2]: 1.2 µM (≈ 0.299 µg/mL) | Microsomal Stability T1/2 [3]: 5.5 (mouse) min | protection against oxidative glutamate toxicity (HT22 cells; HT22 cells, 5 mM glutamate, increasing amounts of compound): protective; also recorded: dose-dependent protection | Microsomal Stability T1/2 [4]: 18 (rat) min

CNc1sc(-c2cccc3ccccc23)nc1C#N [Compound 32, 5-(methylamino)-2-(naphthalen-1-yl)thiazole-4-carbonitrile]
IC50 [5]: > 50 µM

— article PMC4033661 (Journal of medicinal chemistry, 2014)
